Where two headings read alike, the source gives them in different places.
What was measured:
C. parvum [1] = test: 48 h Cryptosporidium growth inhibition assay; assay type: cell-based, Cryptosporidium parvum; details: compound added 3 h post-infection, read at 48 h
Source text: As a first step in developing specific Cryptosporidium mode of action assays, we conducted a series of light microscopy time-lapse and transmission electron microscopy (TEM) time course experiments in order to precisely define C. parvum development within the HCT-8 cell culture system. […] This synchronicity was exploited by modifying a previously developed high-content microscopy assay. These assay modifications enabled the evaluation of several key events within the life cycle: host cell invasion, intracellular replication, host cell egress and establishment of new parasitophorous vacuoles, and sexual differentiation. […] Since the methods all used automated liquid handling, imaging, and image analysis, the assay methods all incorporated nuclear staining to monitor host cell numbers and enable recognition of HCT-8 cell monolayer damage, for example as an artifact from a malfunctioning plate washer or from unanticipated cytotoxicity of the compounds.
Human ileocecal adenocarcinoma (HCT-8) cells were purchased from ATCC (catalog# CCL-244) and cultured in ATCC modified RPMI-1640 medium (Gibco, catalog# A10491–01), supplemented with 10% heat-inactivated fetal bovine serum (Sigma-Aldrich, catalog# 12306C) and 120 U/mL penicillin and 120 μg/mL streptomycin (Gibco, catalog# 15140-122) (culture media). […] For all experiments, HCT-8 cells between passages 9 and 39 were used. C. parvum (Iowa isolate) oocysts were purchased from Bunchgrass Farm (Deary, ID), stored at 4 °C and used within 5 months of collection from an infected calf. To induce excystation, oocysts were first treated with 10 mM hydrochloric acid for 10 min at 37 °C, spun at 14,000×g for 4.5 min at room temperature, treated with 2 mM sodium taurocholate for 10 min at 16 °C, spun as before, and resuspended in culture media for infection.
A modification of a previously reported immunofluorescence assay was used to determine the EC50 and EC90 of compounds[13]. HCT-8 cells were grown to ≥ 90% confluence in 384-well plates (Corning, catalog# 353962) and infected with 5500 oocysts per well after they were induced for excystation as described above. Different concentrations of compounds were added 3 h post-infection and plates were incubated for another 45 h in a 5% CO2 incubator at 37 °C. Wells were then washed 3 times with PBS containing 111 mM D-galactose (PBS-D-gal), fixed with 4% paraformaldehyde (PFA) in PBS for 15 min at room temperature, permeabilized with 0.25% Triton X-100 for 10 min at 37 °C, washed 3 times with PBS with 0.1% Tween 20, and blocked with 4% bovine serum albumin (BSA) in PBS for 2 h at 37 °C or 4 °C overnight. Parasitophorous vacuoles were stained with 1.33 µg/mL of fluorescein-labeled Vicia villosa lectin (Vector Laboratories, catalog# FL-1231) diluted in 1% BSA in PBS with 0.1% Tween 20 for 1 h at 37 °C, followed by addition of Hoechst 33258 (AnaSpec, catalog# AS-83219) at 0.09 mM diluted in water for another 15 min at 37 °C. Wells were then washed 5 times with PBS containing 0.1% Tween 20. A Nikon Eclipse Ti2000 epifluorescence microscope with an automated stage was programmed using NIS-Elements Advanced Research software (Nikon, USA) to focus on the center of each well and take a 3 × 3 or 6 × 6 composite image using an EXi blue fluorescence microscopy camera (QImaging, Canada) with a 20 × objective (NA = 0.45). Nuclei and parasite images were separately exported as.tif files and analyzed using macros developed on the ImageJ platform (National Institutes of Health)[13].

C. parvum [2] = test: DNA replication assay (EdU incorporation); assay type: cell-based, Cryptosporidium parvum; details: compound at EC90; for DNA Synthesis Assay: Mean % Inhibition of EdU-labeling (normalized to parasite numbers), Average: average of replicates; for DNA Synthesis Assay: Mean % Inhibition of EdU-labeling (normalized to parasite numbers), Replicate 1: single replicate 1; for DNA Synthesis Assay: Mean % Inhibition of EdU-labeling (normalized to parasite numbers), Replicate 2: single replicate 2; for DNA Synthesis Assay: Mean % Inhibition of EdU-labeling (normalized to parasite numbers), Replicate 3: single replicate 3; for DNA Synthesis Assay: Mean % Inhibition of EdU-labeling (normalized to parasite numbers), Replicate 4: single replicate 4
Source text: Following cell invasion, Cryptosporidium trophozoites grow and multiply to give rise to multinucleated type I meronts (Fig. 3a). The thymidine analog 5-ethynyl-2′-deoxyuridine (EdU) is efficiently incorporated into newly synthesized DNA, and can be detected using click chemistry. We used EdU to measure parasite intracellular DNA replication, as a surrogate for the more complex phenotype of intracellular growth and division. The approach for differentially labeling newly synthesized parasite DNA compared to host cell DNA was to take advantage of the fact that C. parvum replicates more quickly than the nearly confluent host cells. Thus, by adding EdU shortly before egress, it was possible to preferentially label replicating parasites (Fig. 3b, c). DNA staining with Hoechst labeled all of the host and parasite DNA, making it challenging to visualize and quantify parasite DNA. A simple DNA stain would also not distinguish pre-existing DNA from newly synthesized DNA (Fig. 3c). In contrast, EdU labeling only occurred with incorporation into newly synthesized DNA. Incorporated EdU was then easily stained for immunofluorescence and labeled parasites were quantified using high-content microscopy and an NIH ImageJ macro (Fig. 3c, DMSO condition). The […] hydroxyurea (10 mM), a known inhibitor of DNA replication, was used as a positive control for assay validation. […] Compounds with activity in this assay cannot be concluded to specifically target DNA replication, which is a complex phenotype.
Confluent HCT-8 cell monolayers in glass bottom plates were infected with C. parvum, and compounds were added at EC90 following invasion. At 9 h post-infection, 10 µM EdU was added, followed by incubation for another 2 h, and then washing, fixing, and staining for microscopy. […] 40 × dry objective (NA = 0.7); scale = 5 µm. Arrows indicate selected parasites with EdU-labeled DNA. d Quantification of EdU incorporation. […] Data are mean and SD of 2–5 biological replicates.
After incubation of cells with EdU for 2 h, cells were washed 3 times with PBS-D-gal and then fixed with PBS containing 4% PFA. Cells were then permeabilized and stained for EdU using the Click-iT® assay kit (Thermo Fisher Scientific, catalog# C10340) as per the manufacturer’s instructions. Cells were then imaged by focusing on parasites (note that the host cell nuclei are in a different focal plane) using a 40 × dry objective (0.7 NA) and EdU, and lectin numbers quantified using ImageJ software and the custom macro in Supplementary Method 1.

C. parvum [3] = test: Egress, motility, reinvasion assay (PV ratio); details: compound at EC90; for Egress and Reinvasion Assay: Mean PV ratios (19.5h:6h), Average: average of replicates; for Egress and Reinvasion Assay: Mean PV ratios (19.5h:6h), Replicate 1a: single replicate 1; for Egress and Reinvasion Assay: Mean PV ratios (19.5h:6h), Replicate 2a: single replicate 2; for Egress and Reinvasion Assay: Mean PV ratios (19.5h:6h), Replicate 3a: single replicate 3; for Egress and Reinvasion Assay: Mean PV ratios (19.5h:6h), Replicate 4a: single replicate 4
Experimental: For quantification of parasitophorous vacuoles over time, HCT-8 cells were grown to greater than 90% confluence in 384-well plates and infected with 11,000 oocysts after triggering excystation.

[4] = read-out: Regular 3 to 48 h assay in vitro EC90, C. parvum in HCT-8 cells
[5] = Cryptosporidium parvum, HCT-8, read-out: Regular 3 to 48 h assay in vitro EC90, C. parvum in HCT-8 cells

SMILES	EC90 (C. parvum [1]; [4])	DNA Synthesis Assay: Mean % Inhibition of EdU-labeling (normalized to parasite numbers), Average (C. parvum [2])	DNA Synthesis Assay: Mean % Inhibition of EdU-labeling (normalized to parasite numbers), Replicate 1 (C. parvum [2])	DNA Synthesis Assay: Mean % Inhibition of EdU-labeling (normalized to parasite numbers), Replicate 2 (C. parvum [2])	Egress and Reinvasion Assay: Mean PV ratios (19.5h:6h), Average (C. parvum [3])	Egress and Reinvasion Assay: Mean PV ratios (19.5h:6h), Replicate 1a (C. parvum [3])	Egress and Reinvasion Assay: Mean PV ratios (19.5h:6h), Replicate 2a (C. parvum [3])	DNA Synthesis Assay: Mean % Inhibition of EdU-labeling (normalized to parasite numbers), Replicate 3 (C. parvum [2])	Egress and Reinvasion Assay: Mean PV ratios (19.5h:6h), Replicate 3a (C. parvum [3])	Egress and Reinvasion Assay: Mean PV ratios (19.5h:6h), Replicate 4a (C. parvum [3])	Egress and Reinvasion Assay: Mean PV ratios (19.5h:6h), Replicate 5a (C. parvum [3]; single replicate 5)	Egress and Reinvasion Assay: Mean PV ratios (19.5h:6h), Replicate 6a (C. parvum [3]; single replicate 6)	EC90 (C. parvum [1]; [5])	EC90 (C. parvum [1]; Cryptosporidium parvum, read-out: Regular 3 to 48 h assay in vitro EC90, C. parvum in HCT-8 cells)	DNA Synthesis Assay: Mean % Inhibition of EdU-labeling (normalized to parasite numbers), Replicate 4 (C. parvum [2])	DNA Synthesis Assay: Mean % Inhibition of EdU-labeling (normalized to parasite numbers), Replicate 5 (C. parvum [2]; single replicate 5)	DNA Synthesis Assay: Mean % Inhibition of EdU-labeling (normalized to parasite numbers), Replicate 6 (C. parvum [2]; single replicate 6)	DNA synthesis (C. parvum [2]; yes/no grouping by phenotypic assay result)	effect on C. parvum DNA replication / EdU incorporation (C. parvum [2]; result in words)
Cc1cccc(-n2ncc3c(=O)[nH]c(-n4nc(C)cc4NC(=O)C4CCCC4)nc32)c1 [C-5]	4.99 µM	98.17%	96.33%	100.00%	0.31	0.20	0.42	–	–	–	–	–	–	–	–	–	–	–	–
CN(C)S(=O)(=O)c1ccc(C(=O)N2CCN(c3ccc4nncn4n3)CC2)cc1 [D-44]	11.6 µM	12.07%	29.16%	10.90%	2.21	2.22	2.32	-3.84%	1.73	2.75	1.96	2.29	–	–	–	–	–	–	–
CN(C)c1ccc(C(=C2C=CC(=[N+](C)C)C=C2)c2ccc(N(C)C)cc2)cc1 [Gentian Violet]	1.05 µM	47.40%	62.13%	74.23%	1.37	1.01	1.73	5.82%	–	–	–	–	–	–	–	–	–	–	–
CC(=O)Oc1ccccc1C(=O)Nc1ncc([N+](=O)[O-])s1 [Nitazoxanide]	–	-9.16%	-33.81%	15.50%	1.40	1.33	1.77	–	1.37	1.12	–	–	3.52 µM	–	–	–	–	–	–
Cc1cccc(-n2ncc3c(=O)[nH]c(-n4nc(C)cc4NC(=O)C4CC4)nc32)c1 [C-4]	5.17 µM	99.18%	98.37%	100.00%	0.48	0.49	0.48	–	–	–	–	–	–	–	–	–	–	–	–
O=c1[nH]c(=O)n([C@H]2C[C@H](O)[C@@H](CO)O2)cc1F [Floxuridine]	–	20.42%	15.13%	27.54%	0.74	0.67	0.80	-10.47%	–	–	–	–	–	0.14 µM	28.26%	37.17%	24.87%	no	–
CN(C)C[C@H](O)Cn1c2ccc(Br)cc2c2cc(Br)ccc21 (racemic) [Wiskostatin]	11.3 µM	36.39%	67.16%	42.34%	1.04	1.34	0.98	31.25%	0.80	1.04	–	–	11.3 µM	–	4.83%	–	–	–	active

Source: publication PMC6478823, “A suite of phenotypic assays to ensure pipeline diversity when prioritizing drug-like Cryptosporidium growth inhibitors” (Nature Communications, 2019)
